In US20250340520A1, “CRYSTALLINE FORMS OF SODIUM (5-(4-BROMOPHENYL)-6-(2-((5-BROMOPYRIMIDIN-2-YL)OXY)ETHOXY)PYRIMIDIN-4-YL)(SULFAMOYL)AMIDE” (IDORSIA PHARMACEUTICALS LTD, priority 2022, published 2025):

Test: Comparative stability: HPLC assay of samples stored in open vials
Assay type: physicochemical
Conditions: for assay after storage: open vial; for Initial assay: before storage, HPLC assay
Description: The assay was determined by use of UV-HPLC (e.g., Shimadzu Nexera X2 System) with an autosampler temperature set at 25° C. and a column temperature set at 50° C. Typically 1 μL of sample is injected and separation is obtained by use of a Phenomenex Gemini 5.0 μm 110 Å, 50×2.0 mm column using a flow of 1.5 mL/min. Samples are typically prepared by solubilization in acetonitrile/carbonate buffer pH10 1/1. A gradient method is used with solvent A consisting of Trizma base buffer 50 mM pH 9 (adjusted with HCl) and solvent B consisting of Acetonitrile+5% (v/v) Trizma base buffer 50 mM pH 9 (adjusted with HCl). Following gradient is typically used: […]

| SMILES | assay after storage (40° C., 7 days, 11% RH) | assay after storage (40° C., 7 days, 75% RH) | assay after storage (60° C., 7 days, 11% RH) | assay after storage (60° C., 7 days, 75% RH) | assay after storage (80° C., 3 days, 11% RH) | assay after storage (80° C., 3 days, 75% RH) | Initial assay | chemical stability in comparison to aprocitentan free acid form (in crystalline Form A) (under certain experimental conditions of Table 5) |
| --- | --- | --- | --- | --- | --- | --- | --- | --- |
| NS(=O)(=O)[N-]c1ncnc(OCCOc2ncc(Br)cn2)c1-c1ccc(Br)cc1.[Na+] [COMPOUND in crystalline form 1, sodium (5-(4-bromophenyl)-6-(2-((5-bromopyrimidin-2-yl)oxy)ethoxy)pyrimidin-4-yl)(sulfamoyl)amide] | 104.4% | 104.0% | 104.5% | 102.6% | 103.4% | 72.4% | 104.1% | superior chemical stability |
| NS(=O)(=O)Nc1ncnc(OCCOc2ncc(Br)cn2)c1-c1ccc(Br)cc1 [{5-(4-bromo-phenyl)-6-[2-(5-bromo-pyrimidin-2-yloxy)-ethoxy]-pyrimidin-4-yl}-sulfamide, reference compound] | 97.2% | 91.8% | 96.7% | 93.7% | 89.7% | 0.3% | 96.9% | – |
